The values below come from paper PMC2877039 (Developmental cell, 2010).

Common to all, as to experiment: liposome co-sedimentation, anti-Sec2 western blot
Type in all cases: binding

Experiment [1] has as its target T1, Sec2p (Saccharomyces cerevisiae, UniProt P17065).
T1 sequence (P17065 1-759): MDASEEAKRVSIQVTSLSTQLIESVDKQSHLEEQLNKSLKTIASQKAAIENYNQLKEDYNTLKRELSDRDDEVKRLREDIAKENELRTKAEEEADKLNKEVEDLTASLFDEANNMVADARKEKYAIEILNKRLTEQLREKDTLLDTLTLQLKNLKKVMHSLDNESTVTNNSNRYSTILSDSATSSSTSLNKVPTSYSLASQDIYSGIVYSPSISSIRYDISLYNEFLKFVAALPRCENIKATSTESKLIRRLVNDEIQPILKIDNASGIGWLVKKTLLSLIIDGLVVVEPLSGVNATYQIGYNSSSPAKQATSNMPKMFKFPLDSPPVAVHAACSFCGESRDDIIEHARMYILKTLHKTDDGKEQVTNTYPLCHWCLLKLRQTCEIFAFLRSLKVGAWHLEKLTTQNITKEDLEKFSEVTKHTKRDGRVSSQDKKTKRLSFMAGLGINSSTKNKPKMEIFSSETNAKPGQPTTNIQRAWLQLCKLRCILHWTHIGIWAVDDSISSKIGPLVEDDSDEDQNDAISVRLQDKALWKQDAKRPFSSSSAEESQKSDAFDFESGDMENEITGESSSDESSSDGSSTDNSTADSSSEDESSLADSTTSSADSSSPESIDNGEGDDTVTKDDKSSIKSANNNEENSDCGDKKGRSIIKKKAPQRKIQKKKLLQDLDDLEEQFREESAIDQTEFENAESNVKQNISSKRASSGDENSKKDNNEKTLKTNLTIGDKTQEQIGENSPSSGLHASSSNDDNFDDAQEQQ
The following applies: read-out: approximate Kd; GST-Sec2p; 0.05-0.5 mM liposomes with 10 mol% PI4P; PBS, 0.4 mg/ml BSA, 25 °C.

For experiment [2], the target named is T1, Sec2p. The following applies: GST-Sec2; liposomes with 10 mol% PI4P; PBS, 0.4 mg/ml BSA, 25 °C.
Experiment [3] has as its target T1, Sec2p. The following applies: GST-Sec2; liposomes with 10 mol% PI4P; PBS, 0.4 mg/ml BSA, 25 °C. This is another data set of the same source.
Experiment [4] has as its target T1, Sec2p. The note with it: GST-Sec2; liposomes with 10 mol% PI4P; PBS, 0.4 mg/ml BSA, 25 °C. This is another data set of the same source.

As usually defined, the Kd is the free concentration of one partner at which half of the binding sites on the other are occupied at equilibrium, for simple one-to-one binding. Take PI4P: the Kd on Sec2p [1] is about 185 µM. Moreover, the “PI4P-binding affinity, % of wildtype” value at Sec2p [2] and on Sec2p [4] was ~ 30% throughout. On Sec2p [3], the “PI4P-binding, % of wildtype” value is given as ~ 10%.
